Results reported in patent US9029337B2, “Modulation of factor 7 expression” (Isis Pharmaceuticals, Inc., priority 2007, dated 2015).
Strand notation (5' to 3'): a small letter for the sugar, then the base; units joined by * are phosphorothioate-linked, units joined directly phosphodiester-linked; [ ] holds rarer units or linkages, { } end groups; capitals alone tell only the bases. e = 2'-O-(2-methoxyethyl) (MOE); [5mC] = 5-methylcytosine; d = 2'-deoxy (DNA)

Assays:
[1] = tested on: murine Factor 7 mRNA; experiment: Antisense inhibition of murine Factor 7 mRNA in liver of BALB/c mice, dose response; format: in vivo, mouse
Method: BALB/c mice were treated with ISIS 403102 ([…], target site 11336, incorporated herein as SEQ ID NO: 161). BALB/c mice were injected subcutaneously with 5 mg/kg, 10 mg/kg, 25 mg/kg, or 50 mg/kg of ISIS 403102 twice a week for 3 weeks. A control group of mice was injected subcutaneously with PBS twice a week for 3 weeks. After the treatment period, whole liver was collected for RNA and protein analysis, and plasma was collected for clotting analysis (PT/aPTT).
RNA was extracted from liver tissue for real-time RT-PCR analysis of Factor 7. […] Results are presented as percent inhibition of Factor 7, relative to the control.

[2] = tested on: human Factor 7 mRNA; experiment: Dose-dependent antisense inhibition of human Factor 7 in HepB3 cells, lipofectin; format: cell-based; details: for percent inhibition of Factor 7 mRNA, relative to untreated control cells: HepB3 cells, approx. 16 hours (Table 14); for percent inhibition of Factor 7: approximately 16 hours
Method in brief: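 HepB3 cells (4,000/well) lipofectin-transfected with antisense oligonucleotide at 3.125 or 6.25 up to 100 nM for ~16 h. Factor 7 mRNA measured by real-time RT-PCR with primer probe set RTS 2927, adjusted to RIBOGREEN total RNA; expressed as percent inhibition versus untreated control cells.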

[3] = tested on: human Factor 7 mRNA; experiment: Antisense inhibition of human Factor 7 with short (14-mer) oligonucleotides in HepB3 cells, electroporation 1,000 nM; format: cell-based; details: electroporation, 1,000 nM antisense oligonucleotide, approximately 24 hours, Factor 7 mRNA relative to untreated control cells
Method in brief: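 14-mer 2-10-2 MOE gapmers (full phosphorothioate, 5-methyl-C) electroporated at 1,000 nM into HepB3 cells at 20,000 cells/well. After ~24 h, Factor 7 mRNA by real-time RT-PCR, normalized to RiboGreen total RNA. Reported as % inhibition relative to untreated cells.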

| Substance | percent inhibition of Factor 7 mRNA, relative to untreated control cells ([2]; 3.125 nM) [%] | percent inhibition of Factor 7 mRNA, relative to untreated control cells ([2]; 12.5 nM) [%] | percent inhibition of Factor 7 mRNA, relative to untreated control cells ([2]; 25 nM) [%] | percent inhibition of Factor 7 mRNA, relative to untreated control cells ([2]; 50 nM) [%] | percent inhibition of Factor 7 mRNA, relative to untreated control cells ([2]; 100 nM) [%] | percent inhibition of Factor 7 mRNA, relative to untreated control cells [2] [%] | percent inhibition of Factor 7 ([2]; Table 3, 3.125 nM) [%] | percent inhibition of Factor 7 ([2]; Table 3, 6.25 nM) [%] | percent inhibition of Factor 7 ([2]; Table 3, 12.5 nM) [%] | percent inhibition of Factor 7 ([2]; Table 3, 25.0 nM) [%] | percent inhibition of Factor 7 ([2]; Table 3, 50.0 nM) [%] | percent inhibition of Factor 7 ([2]; Table 3, 100.0 nM) [%] | percent inhibition of Factor 7 ([2]; Table 7, 6.25 nM) [%] | percent inhibition of Factor 7 ([2]; Table 7, 12.5 nM) [%] | percent inhibition of Factor 7 ([2]; Table 7, 25.0 nM) [%] | percent inhibition of Factor 7 ([2]; Table 7, 50.0 nM) [%] | percent inhibition of Factor 7 ([2]; Table 7, 100.0 nM) [%] | further results |
| --- | --- | --- | --- | --- | --- | --- | --- | --- | --- | --- | --- | --- | --- | --- | --- | --- | --- | --- |
| CCATAGAACAGCTTCACAGG (sugars from the 5' end e5 d10 e5, backbone and methylation of C not given here) [ISIS 403102] | – | – | – | – | – | – | – | – | – | – | – | – | – | – | – | – | – | % inhibition of murine Factor 7 mRNA ([1]; 5 mg/kg subcutaneously twice a week for 3 weeks, relative to PBS control): 64%; % inhibition of murine Factor 7 mRNA ([1]; 10 mg/kg subcutaneously twice a week for 3 weeks): 84%; % inhibition of murine Factor 7 mRNA ([1]; 25 mg/kg subcutaneously twice a week for 3 weeks): 96%; % inhibition of murine Factor 7 mRNA ([1]; 50 mg/kg subcutaneously twice a week for 3 weeks): 99%; reduction of murine Factor 7 mRNA over the PBS control ([1]; 5-50 mg/kg twice a week for 3 weeks): dose-dependent reduction of murine Factor 7 |
| 407939 (antisense eT*eG*e[5mC]*eA*eG*d[5mC]*d[5mC]*d[5mC]*dG*dG*d[5mC]*dA*d[5mC]*d[5mC]*d[5mC]*eA*eG*e[5mC]*eG*eA) [compound 407939] | 17 | 57 | 75 | 80 | 83 | 35 | 62 | 79 | 83 | 91 | 92 | 92 | 37 | 57 | 77 | 84 | 87 | % Inhibition [3]: 81% |
| 407935 (antisense eA*eT*eG*e[5mC]*eA*dT*dG*dG*dT*dG*dA*dT*dG*d[5mC]*dT*eT*e[5mC]*eT*eG*eA) [compound 407935] | 19 | 58 | 70 | 85 | 87 | 39 | 57 | 76 | 78 | 89 | 90 | 89 | 38 | 53 | 70 | 82 | 86 | – |
